Experimental data as given in patent US8962558B2, “Methods for reducing GnRH-positive tumor cell proliferation using the GnRH antagonist IN3” (priority 1997, dated 2015).
Square brackets hold non-standard residues; d marks the D form. Peptide text beside a SMILES is read from it. dPhe(4-Cl) = N[C@H](Cc1ccc(Cl)cc1)C(=O)O; d2Nal = N[C@H](Cc1ccc2ccccc2c1)C(=O)O; Lys(iPr) = CC(C)NCCCC[C@H](N)C(=O)O; NMeY = CN[C@@H](Cc1ccc(O)cc1)C(=O)O; dCit = NC(=O)NCCC[C@@H](N)C(=O)O; d3Pal = N[C@H](Cc1cccnc1)C(=O)O

Tests used:
[1] = system: small cell lung carcinoma cell lines NCI-H1688, NCI-H1417, NCI-H1672, NCI-H1836, DMS-79, DM-553, DMS-114, SW-1271, NCI-H2227, NCI-HI1963, SHP-77 and H-69 AR; experiment: Proliferation assay on small cell lung carcinoma cell lines (Example 3); format: cell-based, human; conditions: small cell lung carcinoma cell lines treated with the substance
Method: In another embodiment, the small cell lung carcinoma cell lines NCI-H1688, NCI-H1417, NCI-H1672, NCI-H1836, DMS-79, DM-553, DMS-114, SW-1271, NCI-H2227, NCI-HI1963 and SHP-77 in addition to the multidrug-resistant small cell lung carcinoma cell line H-69 AR, are cultured as described above and then treated as described by Emons, G., et al., 1993, supra, and Irmer, G., 1995, supra, with various concentrations of the GnRH agonists (D-Lys6)-GnRH, Lutrelin, Histrelin, Nafarelin, Azagly-Nafarelin, Deslorelin, Cystorelin, Decapeptyl, Gonadorelin, GnRH, D-Lys(6)-GnRH II, Lamprey GnRH II, (D-Lys6)-Lamprey GnRH, (D-Lys6)-Lamprey GnRH II and Lamprey GnRH III.
In another embodiment, the small cell lung carcinoma cell lines NCI-H1688, NCI-H1417, NCI-H1672, NCI-H1836, DMS-79, DM-553, DMS-114, SW-1271, NCI-H2227, NCI-HI1963 and SHP-77 in addition to the multidrug-resistant small cell lung carcinoma cell line H-69 AR, are cultured as described above for the above-mentioned cell lines, and then treated as described by Emons, G., et al., 1993, supra, and Irmer, G., 1995, supra, with a concentration of the GnRH antagonist Cetrorelix (also known as Cetrotide®) or with a GnRH peptide antagonist Ac-D-Nal(2)-D-4-ClPhe-D-Pal-Ser-1-MePal-D-IsopropylLys-Leu-IsopropylLys-Pro-D-AlaNH2 wherein Mepal is 1-Methyl-3-[3′-pyridyl]-alanine or Ant 135-25 (also known as Ac-D-Nal(2)-D-4-Cl-Phe-D-Pal-Ser-1-MePal-D-IsopropylLys-Leu-IsopropylLys-Pro-D-AlaNH2), Teverelix (also known as Antarelix®), Cetrorelix (also known as Cetrotide®), Abarelix (also known as Plenaxis®), D-63153 (also known as Ozarelix®), acyline, azaline B, antide (also known as Iturelix®), Degarelix (FE200486), Ganirelix, Nal-Glu, Orntide (also known as Ornirelix®) or with antagonist peptidomimetic ((2S)-2-[5-[2-(2-azabicyclo[2,2,2]oct-2-yl)-1,1-dimethyl-2-oxoethyl]-2-(3,5-dimethylphenyl)-1H-indol-3-yl]-N-(2-pyridin-4-ylethyl-)propan-1-amine (also known as “IN3”).

[2] = system: human glioblastoma cell lines U-87MG or U-373MG, Kaposi sarcoma cell lines KSY-1 or KS-SLK, malignant melanoma cell line MV3 or BLM, medulloblastoma cell line …; experiment: Proliferation assay on cell cultures (Example 3); format: cell-based; conditions: for anti-proliferative effects in tumor cells: cell lines of Example 3 treated with the substance; for anti-proliferative effect compared with Cetrorelix only: given additionally as a second GnRH antagonist
Method: A human cell line, such as the well known human glioblastoma cell lines U-87MG or U-373MG (Pinski et al., supra), or a human cell line such as the well known Kaposi sarcoma cell lines KSY-1 or KS-SLK (Parkash et al., 1996, New England Journal of Medicine, 335, 17, 1261-1269), or a human cell line such as the well known human malignant melanoma cell line MV3 or BLM (Goldbrunner, R. H., et al., 1996, Anticancer Research 16 (6B), 3679-87), or a human medulloblastoma cell line such as the well known cell line Daoy or D283 MED (Stockhammer et al., 1995, J. Neurosurgery, 83, 672-681), or human meningeoma cell cultures (Boyle-Wash, E., et al., 1995, Journal of Endocrinology, 145, 155-161), are cultured as previously described for the above-mentioned cell lines and then treated with a concentration of the GnRH agonist Triptorelin®, GnRH antagonist SB-75 (Cetrorelix®) or GnRH antagonist Ramorelix®. […]
In another embodiment, the above-mentioned cell lines are treated as described by Emons, G., et al., 1993, supra, and Irmer, G., 1995, supra, with a concentration of the GnRH peptide antagonist Ac-D-Nal(2)-D-4-ClPhe-D-Pal-Ser-1-MePal-D-IsopropylLys-Leu-IsopropylLys-Pro-D-AlaNH2 (also known as Ant 135-25; the Mepal portion is known as 1-Methyl-3-[3′-pyridyl]-alanine), Teverelix (also known as Antarelix®), Cetrorelix (also known as Cetrotide®), Abarelix (also known as Plenaxis®), D-63153 (also known as Ozarelix®), acyline, azaline B, antide (also known as Iturelix®), Degarelix (FE200486), Ganirelix, Nal-Glu, Orntide (also known as Ornirelix®), Elagolix, or with antagonist peptidomimetic ((2S)-2-[5-[2-(2-azabicyclo[2,2,2]oct-2-yl)-1,1-dimethyl-2-oxoethyl]-2-(3,5-dimethylphenyl)-1H-indol-3-yl]-N-(2-pyridin-4-ylethyl-)propan-1-amine (also known as “IN3”).
In another embodiment, the cell lines used above were each additionally treated with a second GnRH antagonist, namely one of the GnRH antagonists Cetrorelix®, Ant 135-25, IN3, degarelix, Antarelix®, Antide®, and Ramorelix® or alternatively with one of the GnRH antagonists that have been disclosed in U.S. Pat. Nos. 6,939,88, 6,200,957, 5,296,468, 4,851,385, 7,361,633, 7,288,517, WO/2009/106597 or PCT/EP2009/052326, U.S. Pat. Nos. 5,480,969, 5,198,533, or UK Patent GB 2 246782 B, wherein these additional treatment procedures were carried out in a manner similar to those reported in Emons et al., supra, using SB 75 (Cetrorelix®). […]

U-87MG cells = format: cell-based, human
Method: U-87MG cells were plated at a density of 1400 cells/cm^2 in […] in standard culture medium. Cells were allowed to attach and start growing for 3 days; the seeding media were then changed to experimental media. Cells were treated for 7 days with ZOLADEX® (10^−10-10^−6 M); medium was changed every two days. Following treatment, cells were collected and counted by hemocytometer. Data obtained from three independent experiments were analyzed according to the Dunnett's test after one-way ANOVA.

[3] = system: malignant gliomas U-87MG and U-373MG; experiment: In vivo study with tumor-implanted nude mice (Example 4); conditions: daily dosages
Method: An effect of the treatment of tumor-implanted nude mice (Pinski et al., supra) each with one of the GnRH agonists Buserelin, Triptorelin, Goserelin, and Leuprorelin and each with one of the GnRH antagonists Cetrorelix® (SB-75), Antarelix®, Antide®, and Ramorelix® on the growth of malignant gliomas U-87MG and U-373MG was carried out using daily dosages and controls in nude mice using analysis techniques described for the determination of the efficacy of similar peptides in Pinski et al., supra.

[4] = system: human melanoma cell line MV3; experiment: Proliferation assay using the human malignant melanoma cell line MV3; format: cell-based
Method: The human melanoma cell line MV3 was cultured (in long-term culture in RPMI medium (Gibco Co.) with 1% Penstrep and 10% of heat-inactivated fetal calf serum). The proliferation assay was carried out with 6×10^2 cells per well in 96 well plates. First, the cells were removed from the culture flask with a […] and then washed in standard PBS solution. Following centrifugation for 10 minutes (1200 g) the supernatant was discarded and the pellet resuspended in 1 ml medium. An aliquot of 20 μl of the cells was diluted with trypan blue to obtain an 1:20 dilution. Trypan blue stains the necrotic cells. Then counting was performed in a Neubauer counting chamber. Evaluation was performed by daily determination of 4 values starting at day 0 and multiplying the mean values of the cell counts×10^4× dilution factor 20 to obtain the cell count. During the 5 days, the measurement was performed 4× daily in a Biomec spectrophotometer.
The method for determination of tumor cell proliferation is described in Lü, H. Q., et al., 1996, Journal of Cancer Research and Clinical Oncology, 122, 335-342.
The cell line was treated with (Gly-OH10)-LHRH, the LHRH hormone (FIG. 3) (Sigma Chemical Co., No. L8008) or Triptorelin, an LHRH agonist (FIG. 2) (Sigma Chemical Co., No. L9761) or Antide®, a LHRH antagonist (FIG. 1) (Sigma Chemical Co., No. A8802).
Using concentrations of 10^−4 M, 10^−5 M, and 10^−6 M, with the medium serving as a negative control from day 4 on, the following results were obtained: […]

Glioblastoma multiforme = experiment: Phase I study with Buserelin (Example 5); format: in vivo, human; conditions: intravenous or intranasal, permanent medication
Method: Patients with non-resectable Glioblastoma multiforme following microsurgical resection and/or after external conventional radiotherapy and/or brachytherapy; or patients with a diffusely, intraaxially growing brain tumor, multifocal tumor spreading or presence of a gliomatosis cerebri, respectively; a tumor volume of more than 65 ml; or a minimal tumor diameter of more than 5 cm, were each treated with the GnRH agonist Buserelin, which was administered intravenously or alternatively by intranasal application as a permanent medication as described by Klijn, J. G. M., et al., 1982, The Lancet, May 19, […].

CC(=O)N[C@H](Cc1ccc2ccccc2c1)C(=O)N[C@H](Cc1ccc(Cl)cc1)C(=O)N[C@H](Cc1cccnc1)C(=O)N[C@@H](CO)C(=O)N[C@@H](Cc1ccc(O)cc1)C(=O)N[C@H](CCCNC(N)=O)C(=O)N[C@@H](CC(C)C)C(=O)N[C@@H](CCCNC(=N)N)C(=O)N1CCC[C@H]1C(=O)N[C@H](C)C(N)=O [Cetrorelix®] (Ac-[d2Nal][dPhe(4-Cl)][d3Pal]SY[dCit]LRP[dA]-NH2)
anti-proliferative effects in tumor cells [1]: Significant anti-proliferative effects | anti-proliferative effects in tumor cells [2]: Significant anti-proliferative effects | anti-proliferative effect compared with Cetrorelix only [2]: significantly stronger anti-proliferative effect | inhibition of proliferation compared to controls (U-87MG cells; 10^−5 M): 30% | decrease of proliferation (U-87MG cells; 10^−6 M): 28% | growth of malignant gliomas [3]: Significant growth-inhibiting effects

Antarelix®
anti-proliferative effects in tumor cells [1]: Significant anti-proliferative effects | anti-proliferative effects in tumor cells [2]: Significant anti-proliferative effects | anti-proliferative effect compared with Cetrorelix only [2]: significantly stronger anti-proliferative effect | growth of malignant gliomas [3]: Significant growth-inhibiting effects

CCNC(=O)[C@@H]1CCCN1C(=O)[C@H](CCCNC(=N)N)NC(=O)[C@H](CC(C)C)NC(=O)[C@@H](CC(C)C)NC(=O)[C@H](Cc1ccc(O)cc1)NC(=O)[C@H](CO)NC(=O)[C@H](Cc1c[nH]c2ccccc12)NC(=O)[C@H](Cc1c[nH]cn1)NC(=O)[C@@H]1CCC(=O)N1 [LEUPRORELIN®]
anti-proliferative effects in tumor cells [2]: Significant anti-proliferative effects | growth of malignant gliomas [3]: Significant growth-inhibiting effects

Antide®
anti-proliferative effects in tumor cells [1]: Significant anti-proliferative effects | inhibition of proliferation ([4]; 10^−4 M, from day 4 on): 15% | inhibition of proliferation ([4]; 10^−5 M, from day 4 on): 35% | inhibition of proliferation ([4]; 10^−6 M): no inhibition | stimulation of the growth ([4]; 10^−6 M): 40% | anti-proliferative effects in tumor cells [2]: Significant anti-proliferative effects | anti-proliferative effect compared with Cetrorelix only [2]: significantly stronger anti-proliferative effect | growth of malignant gliomas [3]: Significant growth-inhibiting effects

(Gly-OH10)-LHRH (QHWSYGLRPG; Gonadoliberin-1 C-terminal free acid; UniProt P01148 24-33, looked up) [LHRH hormone, the LHRH hormone (Sigma Chemical Co., No. L8008)]
function of the LHRH hormone on MV3 growth in vitro [4]: positive growth factor

CC(=O)N[C@H](Cc1ccc2ccccc2c1)C(=O)N[C@H](Cc1ccc(Cl)cc1)C(=O)N[C@H](Cc1cccnc1)C(=O)N[C@@H](CO)C(=O)N(C)[C@@H](Cc1ccc(O)cc1)C(=O)N[C@H](CC(N)=O)C(=O)N[C@@H](CC(C)C)C(=O)N[C@@H](CCCCNC(C)C)C(=O)N1CCC[C@H]1C(=O)N[C@H](C)C(N)=O [Abarelix] (Ac-[d2Nal][dPhe(4-Cl)][d3Pal]S[NMeY][dN]L[Lys(iPr)]P[dA]-NH2)
anti-proliferative effects in tumor cells [1]: Significant anti-proliferative effects | anti-proliferative effects in tumor cells [2]: Significant anti-proliferative effects

CCNC(=O)[C@@H]1CCCN1C(=O)[C@H](CCCNC(=N)N)NC(=O)[C@H](CC(C)C)NC(=O)[C@@H](COC(C)(C)C)NC(=O)[C@H](Cc1ccc(O)cc1)NC(=O)[C@H](CO)NC(=O)[C@H](Cc1c[nH]c2ccccc12)NC(=O)[C@H](Cc1cnc[nH]1)NC(=O)[C@@H]1CCC(=O)N1 [Buserelin]
anti-proliferative effects in tumor cells [2]: Significant anti-proliferative effects | recidivation-free survival (Glioblastoma multiforme): longer than that described following Tamoxifen treatment of glioma | growth of malignant gliomas [3]: Significant growth-inhibiting effects
